From ChEMBL document CHEMBL1201862, “PubChem BioAssay data set” (2004)
The source made the active and inactive calls.

How the values were obtained:
[1] = Luminescence Cell-Based Dose Response HTS to Identify Inhibitors of 5'UTR Stem-Loop Driven Prion Protein mRNA Translation in H4 Neuroglioblastoma Cells. [Related pubchem assays: 1827 (Project Summary), 1813 (Primary HTS)]; assay type: functional
[2] = molecular target: Voltage-dependent T-type calcium channel subunit alpha-1H (Homo sapiens, UniProt O95180); assay type: functional;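 further: channel activity triggered by adding a high calcium stimulation buffer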
Voltage-dependent T-type calcium channel subunit alpha-1H, sequence (O95180 whole entry): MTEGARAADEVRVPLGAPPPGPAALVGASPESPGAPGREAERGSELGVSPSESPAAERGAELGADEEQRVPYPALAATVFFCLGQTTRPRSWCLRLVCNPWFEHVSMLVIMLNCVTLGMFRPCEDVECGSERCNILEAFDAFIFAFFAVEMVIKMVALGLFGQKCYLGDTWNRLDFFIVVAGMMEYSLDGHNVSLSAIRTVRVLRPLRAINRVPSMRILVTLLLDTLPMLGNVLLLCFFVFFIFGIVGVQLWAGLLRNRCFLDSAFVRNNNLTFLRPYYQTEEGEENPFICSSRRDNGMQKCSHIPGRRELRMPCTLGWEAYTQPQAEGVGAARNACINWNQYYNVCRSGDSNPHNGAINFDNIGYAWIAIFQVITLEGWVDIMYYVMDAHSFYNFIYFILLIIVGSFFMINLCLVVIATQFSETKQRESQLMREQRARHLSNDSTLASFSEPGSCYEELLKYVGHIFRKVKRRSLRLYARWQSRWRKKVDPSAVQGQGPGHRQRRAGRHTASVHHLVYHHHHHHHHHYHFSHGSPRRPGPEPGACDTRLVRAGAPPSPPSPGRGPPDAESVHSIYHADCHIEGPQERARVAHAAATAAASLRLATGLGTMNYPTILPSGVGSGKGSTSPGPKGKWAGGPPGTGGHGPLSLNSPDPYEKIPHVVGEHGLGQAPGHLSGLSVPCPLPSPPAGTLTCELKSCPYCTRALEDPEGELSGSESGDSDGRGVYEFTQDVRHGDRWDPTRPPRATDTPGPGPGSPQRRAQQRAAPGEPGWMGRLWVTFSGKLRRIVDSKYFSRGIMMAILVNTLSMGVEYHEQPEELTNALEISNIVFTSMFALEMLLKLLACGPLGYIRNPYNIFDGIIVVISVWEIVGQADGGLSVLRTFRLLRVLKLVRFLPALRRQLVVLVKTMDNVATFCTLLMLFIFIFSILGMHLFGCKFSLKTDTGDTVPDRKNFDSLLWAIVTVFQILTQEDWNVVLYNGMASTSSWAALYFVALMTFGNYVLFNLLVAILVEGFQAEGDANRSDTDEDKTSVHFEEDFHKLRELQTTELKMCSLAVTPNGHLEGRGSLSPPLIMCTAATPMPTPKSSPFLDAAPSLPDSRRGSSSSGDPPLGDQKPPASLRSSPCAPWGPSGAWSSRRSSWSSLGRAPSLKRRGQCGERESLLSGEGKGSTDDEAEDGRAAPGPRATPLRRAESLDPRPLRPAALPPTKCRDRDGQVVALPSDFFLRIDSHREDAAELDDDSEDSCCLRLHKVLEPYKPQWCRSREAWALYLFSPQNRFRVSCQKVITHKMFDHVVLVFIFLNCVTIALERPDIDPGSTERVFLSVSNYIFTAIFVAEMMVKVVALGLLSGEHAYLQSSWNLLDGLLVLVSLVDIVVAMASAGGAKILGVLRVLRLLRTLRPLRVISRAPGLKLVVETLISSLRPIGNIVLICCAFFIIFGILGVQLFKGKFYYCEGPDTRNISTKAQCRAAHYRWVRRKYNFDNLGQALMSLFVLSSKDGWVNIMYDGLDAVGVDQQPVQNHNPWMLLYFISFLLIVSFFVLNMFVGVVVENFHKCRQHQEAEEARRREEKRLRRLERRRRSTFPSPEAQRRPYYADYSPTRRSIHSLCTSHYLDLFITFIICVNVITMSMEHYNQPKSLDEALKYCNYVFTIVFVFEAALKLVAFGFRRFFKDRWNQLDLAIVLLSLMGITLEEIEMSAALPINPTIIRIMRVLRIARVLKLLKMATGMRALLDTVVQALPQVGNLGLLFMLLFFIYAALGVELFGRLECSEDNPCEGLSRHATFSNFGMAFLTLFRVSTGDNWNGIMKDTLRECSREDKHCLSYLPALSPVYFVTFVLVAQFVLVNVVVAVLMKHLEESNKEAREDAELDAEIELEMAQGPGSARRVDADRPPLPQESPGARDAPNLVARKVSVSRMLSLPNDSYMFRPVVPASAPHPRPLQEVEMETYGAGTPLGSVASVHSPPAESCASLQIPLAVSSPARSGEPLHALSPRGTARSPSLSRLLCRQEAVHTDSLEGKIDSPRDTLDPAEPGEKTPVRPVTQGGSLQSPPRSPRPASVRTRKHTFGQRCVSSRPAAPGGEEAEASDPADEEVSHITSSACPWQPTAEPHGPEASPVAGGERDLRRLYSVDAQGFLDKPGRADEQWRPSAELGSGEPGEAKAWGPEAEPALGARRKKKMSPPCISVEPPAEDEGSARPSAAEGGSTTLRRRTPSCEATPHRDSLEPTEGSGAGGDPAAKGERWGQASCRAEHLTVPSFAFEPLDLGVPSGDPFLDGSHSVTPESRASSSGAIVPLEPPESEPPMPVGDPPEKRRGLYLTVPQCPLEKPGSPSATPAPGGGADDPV

[3] = inhibitors of SNCA 5'UTR-driven reporter translation, confirmation, H4 neuroglioma cells, luminescence (AID 1988); assay type: functional, cell-based
[4] = inhibitors of firefly luciferase expression or activity, dose response, H4 neuroglioma cells, luminescence (AID 1990); assay type: functional, cell-based
[5] = Glucagon-like peptide 1 release potency, NCI-H716 cell line, dose-response, half-maximal inhibitory concentration (AID 1117344); assay type: functional, cell-based
[6] = cytotoxicity in KRAS-transformed pancreatic duct cells, primary screen, cell-based, fluorescence, HTS (AID 431); assay type: functional; conditions: Homo sapiens;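 further: cell line used: HPDE-C7K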
[7] = half-maximal inhibitory concentration for glucagon-like peptide-1 release, STC-1 cell line, dose-response (AID 1117345); assay type: functional, cell-based
[8] = cytotoxicity in HPDE-C7 cells, cell-based, fluorescence, HTS (AID 430); assay type: functional; conditions: Homo sapiens
[9] = molecular target: Heat shock protein HSP 90-alpha (Homo sapiens, UniProt P07900); assay type: functional, organism-based
[10] = molecular target: T1, Replicative DNA helicase DnaB (Mycobacterium tuberculosis, UniProt P9WMR3); assay: DnaB intein splicing inhibitors, dose response, biochemical, cell-free fluorescence (AID 449749); assay type: functional
T1 sequence (P9WMR3 whole entry): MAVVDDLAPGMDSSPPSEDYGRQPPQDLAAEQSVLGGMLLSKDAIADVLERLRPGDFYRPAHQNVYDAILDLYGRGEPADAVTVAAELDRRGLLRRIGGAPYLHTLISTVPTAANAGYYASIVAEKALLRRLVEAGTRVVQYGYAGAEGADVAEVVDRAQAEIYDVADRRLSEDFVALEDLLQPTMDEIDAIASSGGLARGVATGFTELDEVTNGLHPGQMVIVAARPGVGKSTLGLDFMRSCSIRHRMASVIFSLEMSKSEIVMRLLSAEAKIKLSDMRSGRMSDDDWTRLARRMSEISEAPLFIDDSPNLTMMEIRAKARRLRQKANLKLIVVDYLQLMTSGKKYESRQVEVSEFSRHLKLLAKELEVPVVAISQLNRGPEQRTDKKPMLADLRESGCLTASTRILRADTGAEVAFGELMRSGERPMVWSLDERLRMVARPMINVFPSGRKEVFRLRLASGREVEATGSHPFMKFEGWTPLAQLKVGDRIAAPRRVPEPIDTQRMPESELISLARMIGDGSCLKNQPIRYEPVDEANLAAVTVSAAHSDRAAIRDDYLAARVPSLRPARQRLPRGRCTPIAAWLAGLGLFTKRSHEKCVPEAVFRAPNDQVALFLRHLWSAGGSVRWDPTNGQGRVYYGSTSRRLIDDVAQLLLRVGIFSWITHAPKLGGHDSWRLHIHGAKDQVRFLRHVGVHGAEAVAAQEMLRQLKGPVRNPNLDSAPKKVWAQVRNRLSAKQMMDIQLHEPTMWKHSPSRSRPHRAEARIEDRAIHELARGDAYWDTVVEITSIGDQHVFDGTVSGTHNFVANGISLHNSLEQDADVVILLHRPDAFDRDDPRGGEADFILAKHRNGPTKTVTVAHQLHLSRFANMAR

Protein RecA = molecular target: T2, Protein RecA (Mycobacterium tuberculosis, UniProt P9WHJ3); assay: Fluorescence Cell-Free Homogeneous Dose Retest to Identify Inhibitors of RecA-Intein Splicing Activity. [Related pubchem assays (depositor defined):AID2097, AID2223, AID489010, AID492950]; assay type: functional
T2 sequence (P9WHJ3 whole entry): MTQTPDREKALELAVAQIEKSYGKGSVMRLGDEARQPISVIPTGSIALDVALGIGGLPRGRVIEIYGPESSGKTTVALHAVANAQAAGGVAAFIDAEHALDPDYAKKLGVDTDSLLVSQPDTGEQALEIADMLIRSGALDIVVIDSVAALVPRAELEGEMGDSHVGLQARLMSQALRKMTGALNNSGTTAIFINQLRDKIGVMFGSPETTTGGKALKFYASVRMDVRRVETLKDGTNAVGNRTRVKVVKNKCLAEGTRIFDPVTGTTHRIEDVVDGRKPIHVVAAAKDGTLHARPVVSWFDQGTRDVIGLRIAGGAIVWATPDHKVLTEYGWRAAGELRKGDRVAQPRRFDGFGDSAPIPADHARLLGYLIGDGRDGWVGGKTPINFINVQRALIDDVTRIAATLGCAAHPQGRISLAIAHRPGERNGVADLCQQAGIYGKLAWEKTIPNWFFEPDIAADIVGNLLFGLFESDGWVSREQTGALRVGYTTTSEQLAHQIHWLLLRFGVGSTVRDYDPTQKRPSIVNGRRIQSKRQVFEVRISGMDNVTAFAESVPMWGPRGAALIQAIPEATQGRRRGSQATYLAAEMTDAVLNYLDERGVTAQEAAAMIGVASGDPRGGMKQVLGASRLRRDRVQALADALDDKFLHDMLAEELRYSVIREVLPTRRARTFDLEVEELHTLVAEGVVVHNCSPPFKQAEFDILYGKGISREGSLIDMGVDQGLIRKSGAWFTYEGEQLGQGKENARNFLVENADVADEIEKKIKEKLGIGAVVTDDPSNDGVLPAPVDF

[11] = molecular target: T3, Alkaline phosphatase, tissue-nonspecific isozyme (Homo sapiens, UniProt P05186)
T3 sequence (P05186 whole entry): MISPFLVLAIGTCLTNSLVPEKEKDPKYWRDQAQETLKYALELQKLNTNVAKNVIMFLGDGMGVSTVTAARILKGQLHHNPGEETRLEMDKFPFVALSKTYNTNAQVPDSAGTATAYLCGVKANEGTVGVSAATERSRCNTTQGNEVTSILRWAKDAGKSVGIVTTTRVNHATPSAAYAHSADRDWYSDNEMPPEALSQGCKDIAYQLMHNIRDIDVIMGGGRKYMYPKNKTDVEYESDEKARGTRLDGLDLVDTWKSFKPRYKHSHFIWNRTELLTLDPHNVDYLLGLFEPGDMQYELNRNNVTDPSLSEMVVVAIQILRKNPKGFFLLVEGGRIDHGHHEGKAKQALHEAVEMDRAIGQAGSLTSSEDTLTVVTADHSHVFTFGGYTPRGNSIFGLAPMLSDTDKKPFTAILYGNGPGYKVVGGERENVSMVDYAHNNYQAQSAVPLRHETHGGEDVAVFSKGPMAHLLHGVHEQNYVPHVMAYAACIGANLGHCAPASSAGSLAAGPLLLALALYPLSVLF

Bcl-2-like protein 10 = Bcl-2-like protein 10 (Homo sapiens, UniProt Q9HD36); assay: displacers of TR3 peptide from Bcl-B, primary screen, selectivity assay for Bfl-1 inhibitor project, biochemical, fluorescence polarization, FITC-TR3 peptide (AID 748);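 further: fluorescence polarization from a fluorescein-labelled TR3 peptide binding purified Bcl-B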
Bcl-2-like protein 10, sequence (Q9HD36 whole entry): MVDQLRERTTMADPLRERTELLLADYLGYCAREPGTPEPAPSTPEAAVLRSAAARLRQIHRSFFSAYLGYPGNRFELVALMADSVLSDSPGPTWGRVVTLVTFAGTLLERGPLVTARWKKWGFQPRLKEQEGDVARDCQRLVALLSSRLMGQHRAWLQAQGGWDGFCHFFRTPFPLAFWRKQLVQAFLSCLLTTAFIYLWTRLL

Tumor necrosis factor = Tumor necrosis factor (Homo sapiens, UniProt P01375); assay: TNFa-triggered NF-kB activation inhibitors, SAR follow-up, cell-based, revised (AID 2337); assay type: functional
Tumor necrosis factor, sequence (P01375 whole entry, the tested form may be a part): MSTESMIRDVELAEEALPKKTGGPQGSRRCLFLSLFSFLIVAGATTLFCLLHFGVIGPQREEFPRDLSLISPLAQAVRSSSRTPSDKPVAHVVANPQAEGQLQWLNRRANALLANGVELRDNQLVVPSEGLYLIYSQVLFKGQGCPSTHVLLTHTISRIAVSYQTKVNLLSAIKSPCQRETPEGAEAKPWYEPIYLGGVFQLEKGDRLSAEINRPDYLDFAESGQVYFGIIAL

[12] = molecular target: Nucleotide-binding oligomerization domain-containing protein 2 (Homo sapiens, UniProt Q9HC29); assay: PubChem AID 2334; assay type: functional
Nucleotide-binding oligomerization domain-containing protein 2, sequence (Q9HC29 whole entry, the tested form may be a part): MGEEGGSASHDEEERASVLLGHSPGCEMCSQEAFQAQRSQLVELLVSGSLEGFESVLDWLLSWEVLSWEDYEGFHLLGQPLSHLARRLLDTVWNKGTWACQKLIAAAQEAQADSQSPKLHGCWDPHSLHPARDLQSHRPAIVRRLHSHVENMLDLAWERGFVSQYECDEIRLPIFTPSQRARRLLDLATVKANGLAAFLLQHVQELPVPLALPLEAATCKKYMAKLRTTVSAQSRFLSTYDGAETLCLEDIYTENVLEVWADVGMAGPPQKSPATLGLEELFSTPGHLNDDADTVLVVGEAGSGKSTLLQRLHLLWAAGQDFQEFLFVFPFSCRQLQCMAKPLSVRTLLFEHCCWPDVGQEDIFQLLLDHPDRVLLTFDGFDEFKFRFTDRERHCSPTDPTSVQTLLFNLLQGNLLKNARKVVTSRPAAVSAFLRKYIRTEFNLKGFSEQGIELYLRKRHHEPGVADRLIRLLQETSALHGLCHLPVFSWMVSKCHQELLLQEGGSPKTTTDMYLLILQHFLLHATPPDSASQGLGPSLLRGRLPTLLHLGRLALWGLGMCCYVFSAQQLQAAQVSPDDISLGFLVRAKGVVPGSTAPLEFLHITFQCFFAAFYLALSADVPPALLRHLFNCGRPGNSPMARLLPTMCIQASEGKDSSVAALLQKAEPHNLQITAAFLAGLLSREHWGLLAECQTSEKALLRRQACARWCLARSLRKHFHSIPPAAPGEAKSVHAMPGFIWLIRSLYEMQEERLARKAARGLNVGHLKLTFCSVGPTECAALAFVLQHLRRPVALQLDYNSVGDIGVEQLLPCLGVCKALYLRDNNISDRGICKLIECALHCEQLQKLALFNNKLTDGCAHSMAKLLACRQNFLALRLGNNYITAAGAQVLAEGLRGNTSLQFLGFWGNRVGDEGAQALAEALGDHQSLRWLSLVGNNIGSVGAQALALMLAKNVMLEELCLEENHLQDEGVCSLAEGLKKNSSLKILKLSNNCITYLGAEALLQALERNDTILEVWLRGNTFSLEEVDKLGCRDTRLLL

HEK293 = assay: cells; conditions: Homo sapiens;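 further: cells exposed to compound for 14 hours overnight before viability readout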
[13] = molecular target: T4, Nucleotide-binding oligomerization domain-containing protein 1 (Homo sapiens, UniProt Q9Y239); assay: NOD1 signaling inhibitors, SAR follow-up, revised (AID 2333); assay type: functional
T4 sequence (Q9Y239 whole entry): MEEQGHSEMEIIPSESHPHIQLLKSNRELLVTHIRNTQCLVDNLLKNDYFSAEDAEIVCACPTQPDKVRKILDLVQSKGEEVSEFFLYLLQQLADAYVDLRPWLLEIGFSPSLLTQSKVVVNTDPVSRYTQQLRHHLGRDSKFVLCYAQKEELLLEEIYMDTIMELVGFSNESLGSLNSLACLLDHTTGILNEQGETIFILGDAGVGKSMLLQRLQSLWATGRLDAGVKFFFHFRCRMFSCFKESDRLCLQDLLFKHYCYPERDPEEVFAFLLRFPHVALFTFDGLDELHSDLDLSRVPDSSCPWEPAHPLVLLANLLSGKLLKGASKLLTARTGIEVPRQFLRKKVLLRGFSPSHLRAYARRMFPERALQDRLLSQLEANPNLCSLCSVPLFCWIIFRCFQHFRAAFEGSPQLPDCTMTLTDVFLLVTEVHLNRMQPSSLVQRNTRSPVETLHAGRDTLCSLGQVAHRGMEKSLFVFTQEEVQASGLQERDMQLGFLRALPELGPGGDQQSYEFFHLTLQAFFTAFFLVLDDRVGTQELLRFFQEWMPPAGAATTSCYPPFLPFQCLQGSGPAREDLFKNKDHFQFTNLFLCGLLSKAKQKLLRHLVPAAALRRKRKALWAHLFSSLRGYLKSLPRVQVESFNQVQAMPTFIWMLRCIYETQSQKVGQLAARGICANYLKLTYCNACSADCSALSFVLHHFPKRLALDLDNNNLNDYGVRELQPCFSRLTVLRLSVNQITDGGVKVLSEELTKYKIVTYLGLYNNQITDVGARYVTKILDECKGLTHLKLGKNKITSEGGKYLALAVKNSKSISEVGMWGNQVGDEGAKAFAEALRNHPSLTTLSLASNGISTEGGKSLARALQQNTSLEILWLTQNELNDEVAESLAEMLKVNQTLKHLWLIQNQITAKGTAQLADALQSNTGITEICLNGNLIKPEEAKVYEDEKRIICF

[14] = molecular target: DNA dC->dU-editing enzyme APOBEC-3G (Homo sapiens, UniProt Q9HC16); assay: Dose Response confirmation of small molecule APOBEC3G DNA Deaminase Inhibitors via a fluorescence-based single-stranded DNA deaminase assay. [Related pubchem assays (depositor defined):AID493012, AID493028]; assay type: functional
DNA dC->dU-editing enzyme APOBEC-3G, sequence (Q9HC16 whole entry): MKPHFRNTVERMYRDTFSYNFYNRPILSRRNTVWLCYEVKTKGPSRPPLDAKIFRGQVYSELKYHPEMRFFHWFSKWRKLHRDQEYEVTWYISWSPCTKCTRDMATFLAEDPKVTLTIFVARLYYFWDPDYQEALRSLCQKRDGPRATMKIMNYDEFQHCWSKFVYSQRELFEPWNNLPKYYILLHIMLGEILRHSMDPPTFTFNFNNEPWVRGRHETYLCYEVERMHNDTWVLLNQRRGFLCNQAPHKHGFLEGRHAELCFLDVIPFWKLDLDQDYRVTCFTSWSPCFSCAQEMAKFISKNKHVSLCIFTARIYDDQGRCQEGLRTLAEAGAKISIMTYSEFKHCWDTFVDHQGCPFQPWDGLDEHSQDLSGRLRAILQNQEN

[15] = molecular target: T5, Polyadenylate-binding protein 1 (Homo sapiens, UniProt P11940); assay: PABP1 MLLE–PAM2 binding inhibitor potency, dose response, biochemical, fluorescence polarization, FITC-PAM2 peptide (AID 602259); assay type: functional; conditions: read-out: IC50_Mean
T5 sequence (P11940 whole entry): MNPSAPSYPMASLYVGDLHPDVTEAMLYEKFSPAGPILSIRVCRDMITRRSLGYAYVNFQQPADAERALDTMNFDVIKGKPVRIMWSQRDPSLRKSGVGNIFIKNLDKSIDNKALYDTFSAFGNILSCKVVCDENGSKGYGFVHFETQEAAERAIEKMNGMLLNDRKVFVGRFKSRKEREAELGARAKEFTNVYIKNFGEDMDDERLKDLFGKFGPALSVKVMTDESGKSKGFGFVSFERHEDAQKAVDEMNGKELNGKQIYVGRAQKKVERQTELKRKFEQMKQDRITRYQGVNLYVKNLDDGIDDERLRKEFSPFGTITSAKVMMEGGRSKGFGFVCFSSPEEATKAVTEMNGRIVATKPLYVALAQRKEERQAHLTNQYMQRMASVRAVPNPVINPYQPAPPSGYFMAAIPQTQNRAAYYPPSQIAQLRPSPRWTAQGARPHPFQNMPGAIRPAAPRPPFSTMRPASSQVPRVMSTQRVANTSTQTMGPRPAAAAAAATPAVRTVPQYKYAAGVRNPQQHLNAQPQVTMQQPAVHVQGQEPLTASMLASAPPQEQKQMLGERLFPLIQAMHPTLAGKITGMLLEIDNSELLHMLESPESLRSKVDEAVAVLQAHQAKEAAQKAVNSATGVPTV

[16] = molecular target: T5, Polyadenylate-binding protein 1; assay: PABP1 MLLE–PAM2 interaction inhibitors, dose response, miRNA deadenylation inhibitor project, biochemical, fluorescence polarization, Cy5-PAM2 peptide, secondary (AID 602260); assay type: functional; conditions: read-out: IC50_Mean

With CCc1nnc(NC(=O)CSc2nnc(C3CCCCC3)n2-c2cccc(Cl)c2)s1 the EC50 [1] was > 120 µM (not active), the EC50 [2] was 7.01 µM (active) and the EC50 [3] was > 120 µM (not active). For the same molecule, the EC50 [4] was > 120 µM (not active).

With Clc1ccc(CSC(Cn2ccnc2)c2ccc(Cl)cc2Cl)cc1 (stereo unspecified) [SULCONAZOLE NITRATE] the IC50 [5] was 21 µM (inactive), the EC50 [6] was 8.21 µM (active) and the IC50 [7] was > 40 µM (inactive). For the same molecule, the EC50 [8] was 7.1 µM (active), the AC50 [9] was 294 nM (active) and the AC50 [10] was 3.52 µM (active). The EC50 (Protein RecA) was 9.78 µM (active) and the EC50 [11] was 60.3 µM (not active).

In the case of Cc1ccc(NC(=O)Nc2cccs2)c(Cl)c1, the IC50 (Bcl-2-like protein 10) is reported as > 100 µM (inactive).

For Cc1ccc(O)c(N=Cc2cc(Cc3ccccc3)cc([N+](=O)[O-])c2O)c1, the IC50 (Tumor necrosis factor) was > 20 µM (inactive), the IC50 [12] was > 20 µM (inactive) and the IC50 (HEK293) was > 20 µM (inactive). The IC50 [13] was > 20 µM (inactive).

For O=C(Nc1ccc(N2CCOCC2)c(S(=O)(=O)Nc2ccc(Cl)cc2)c1)c1cnccn1, the IC50 [14] was 51.6 µM (active), the IC50 [15] was > 66 µM (inactive) and the IC50 [16] was > 66 µM (inactive).

With Cc1cc(C)c(NC(=O)c2cc3c(nc4sccn43)s2)c(C)c1 the IC50 (Bcl-2-like protein 10) was > 100 µM (inactive).
